Measurements from the NIST ThermoML archive (doi:10.1016/j.jct.2004.11.001).

Conditions: Liquid; for speed of sound: non intrusive technique with two piezoelectric transducers based on the time of flight

[2H]C([2H])([2H])C(=O)C([2H])([2H])[2H] [(D6)-2-propanone]
Conditions | mass density [kg/m3] | speed of sound [m/s]
288.2 K, 100 kPa | – | 1110.6
288.2 K, 5020 kPa | – | 1140.7
288.2 K, 10060 kPa | – | 1168.2
288.2 K, 20010 kPa | – | 1218.6
288.2 K, 30090 kPa | – | 1264.4
288.2 K, 40050 kPa | – | 1302.9
288.2 K, 49940 kPa | – | 1345.4
288.2 K, 60000 kPa | – | 1382.2
288.2 K, 70020 kPa | – | 1417.2
288.2 K, 80060 kPa | – | 1450.1
288.2 K, 90030 kPa | – | 1481.9
288.2 K, 100110 kPa | – | 1512.5
288.2 K, 110100 kPa | – | 1540.4
288.2 K, 120100 kPa | – | 1568.3
288.2 K, 130120 kPa | – | 1595.5
288.2 K, 140000 kPa | – | 1620.6
288.2 K, 150150 kPa | – | 1640.3
288.2 K, 160030 kPa | – | 1664
298.15 K, 100 kPa | 868 | –
298.15 K, 5000 kPa | 873.51 | –
298.15 K, 9920 kPa | 878.81 | –
298.15 K, 14840 kPa | 883.83 | –
298.15 K, 19760 kPa | 888.58 | –
298.15 K, 24670 kPa | 893.11 | –
298.15 K, 29590 kPa | 897.46 | –
298.15 K, 34510 kPa | 901.62 | –
298.15 K, 39430 kPa | 905.63 | –
298.15 K, 44340 kPa | 909.51 | –
298.15 K, 49260 kPa | 913.26 | –
298.15 K, 54180 kPa | 916.86 | –
298.15 K, 59100 kPa | 920.33 | –
298.25 K, 100 kPa | – | 1071.6
298.25 K, 5080 kPa | – | 1103.4
298.25 K, 10170 kPa | – | 1131.8
298.25 K, 20270 kPa | – | 1183.7
298.25 K, 30000 kPa | – | 1229.6
298.25 K, 40010 kPa | – | 1272.1
298.25 K, 50020 kPa | – | 1312
298.25 K, 60450 kPa | – | 1350.7
298.25 K, 70020 kPa | – | 1383.8
298.25 K, 80010 kPa | – | 1416.9
298.25 K, 90200 kPa | – | 1443.5
298.25 K, 100040 kPa | – | 1478.7
298.25 K, 110070 kPa | – | 1507.6
298.25 K, 120040 kPa | – | 1535.4
298.25 K, 130020 kPa | – | 1561.1
298.25 K, 140020 kPa | – | 1586.5
298.25 K, 150120 kPa | – | 1611.2
298.25 K, 159970 kPa | – | 1634.8
303.16 K, 100 kPa | 861.61 | –
303.16 K, 5000 kPa | 867.3 | –
303.16 K, 9920 kPa | 872.78 | –
303.16 K, 14840 kPa | 877.94 | –
303.16 K, 19760 kPa | 882.84 | –
303.16 K, 24670 kPa | 887.5 | –
303.16 K, 29590 kPa | 891.96 | –
303.16 K, 34510 kPa | 896.23 | –
303.16 K, 39430 kPa | 900.35 | –
303.16 K, 44340 kPa | 904.3 | –
303.16 K, 49260 kPa | 908.1 | –
303.16 K, 54180 kPa | 911.79 | –
303.16 K, 59100 kPa | 915.34 | –
308.2 K, 100 kPa | 855.39 | –
308.2 K, 5000 kPa | 861.42 | –
308.2 K, 9920 kPa | 867.11 | –
308.2 K, 14840 kPa | 872.49 | –
308.2 K, 19760 kPa | 877.58 | –
308.2 K, 24670 kPa | 882.42 | –
308.2 K, 29590 kPa | 887.02 | –
308.2 K, 34510 kPa | 891.38 | –
308.2 K, 39430 kPa | 895.65 | –
308.2 K, 44340 kPa | 899.72 | –
308.2 K, 49260 kPa | 903.62 | –
308.2 K, 54180 kPa | 907.33 | –
308.2 K, 59100 kPa | 910.94 | –
308.22 K, 100 kPa | – | 1033.3
308.22 K, 5040 kPa | – | 1063.2
308.22 K, 10000 kPa | – | 1093.5
308.22 K, 20090 kPa | – | 1147.9
308.22 K, 29990 kPa | – | 1196.3
308.22 K, 40040 kPa | – | 1240.8
308.22 K, 50090 kPa | – | 1281.7
308.22 K, 60060 kPa | – | 1319.5
308.22 K, 70070 kPa | – | 1355
308.22 K, 80090 kPa | – | 1388.6
308.22 K, 89970 kPa | – | 1420.3
308.22 K, 100070 kPa | – | 1450.8
308.22 K, 110070 kPa | – | 1479.7
308.22 K, 120060 kPa | – | 1507.5
308.22 K, 130120 kPa | – | 1534.3
308.22 K, 140080 kPa | – | 1559.4
308.22 K, 150120 kPa | – | 1584
308.22 K, 160000 kPa | – | 1607.2
313.21 K, 100 kPa | 848.68 | –
313.21 K, 5000 kPa | 855 | –
313.21 K, 9920 kPa | 860.92 | –
313.21 K, 14840 kPa | 866.48 | –
313.21 K, 19760 kPa | 871.75 | –
313.21 K, 24670 kPa | 876.72 | –
313.21 K, 29590 kPa | 881.49 | –
313.21 K, 34510 kPa | 886.02 | –
313.21 K, 39430 kPa | 890.35 | –
313.21 K, 44340 kPa | 894.51 | –
313.21 K, 49260 kPa | 898.52 | –
313.21 K, 54180 kPa | 902.37 | –
313.21 K, 59100 kPa | 906.07 | –
318.11 K, 100 kPa | 842.15 | –
318.11 K, 5000 kPa | 848.68 | –
318.11 K, 9920 kPa | 854.81 | –
318.11 K, 14840 kPa | 860.56 | –
318.11 K, 19760 kPa | 865.99 | –
318.11 K, 24670 kPa | 871.14 | –
318.11 K, 29590 kPa | 876.06 | –
318.11 K, 34510 kPa | 880.71 | –
318.11 K, 39430 kPa | 885.18 | –
318.11 K, 44340 kPa | 889.44 | –
318.11 K, 49260 kPa | 893.55 | –
318.11 K, 54180 kPa | 897.49 | –
318.11 K, 59100 kPa | 901.28 | –
318.22 K, 100 kPa | – | 991.2
318.22 K, 4980 kPa | – | 1022.9
318.22 K, 10070 kPa | – | 1053.8
318.22 K, 19990 kPa | – | 1109.8
318.22 K, 30040 kPa | – | 1161.1
318.22 K, 40070 kPa | – | 1207.9
318.22 K, 50060 kPa | – | 1250.3
318.22 K, 60010 kPa | – | 1289.3
318.22 K, 70120 kPa | – | 1326.3
318.22 K, 80030 kPa | – | 1360.3
318.22 K, 90090 kPa | – | 1393
318.22 K, 100300 kPa | – | 1424.8
318.22 K, 110120 kPa | – | 1453.2
318.22 K, 120030 kPa | – | 1481
318.22 K, 129970 kPa | – | 1507.9
318.22 K, 140110 kPa | – | 1534.2
318.22 K, 150060 kPa | – | 1558.7
318.22 K, 160060 kPa | – | 1582.6
323.12 K, 100 kPa | 835.37 | –
323.12 K, 5000 kPa | 842.13 | –
323.12 K, 9920 kPa | 848.49 | –
323.12 K, 14840 kPa | 854.44 | –
323.12 K, 19760 kPa | 860.07 | –
323.12 K, 24670 kPa | 865.35 | –
323.12 K, 29590 kPa | 870.38 | –
323.12 K, 34510 kPa | 875.18 | –
323.12 K, 39430 kPa | 879.78 | –
323.12 K, 44340 kPa | 884.16 | –
323.12 K, 49260 kPa | 888.38 | –
323.12 K, 54180 kPa | 892.45 | –
323.12 K, 59100 kPa | 896.36 | –
328 K, 100 kPa | 828.68 | –
328 K, 5000 kPa | 835.72 | –
328 K, 9920 kPa | 842.33 | –
328 K, 14840 kPa | 848.48 | –
328 K, 19760 kPa | 854.24 | –
328 K, 24670 kPa | 859.71 | –
328 K, 29590 kPa | 864.88 | –
328 K, 34510 kPa | 869.82 | –
328 K, 39430 kPa | 874.55 | –
328 K, 44340 kPa | 879.05 | –
328 K, 49260 kPa | 883.39 | –
328 K, 54180 kPa | 887.57 | –
328 K, 59100 kPa | 891.6 | –
328.68 K, 100 kPa | – | 941.9
328.68 K, 5090 kPa | – | 977.6
328.68 K, 10030 kPa | – | 1009.5
328.68 K, 20070 kPa | – | 1068.8
328.68 K, 30010 kPa | – | 1121.9
328.68 K, 40010 kPa | – | 1171.1
328.68 K, 50070 kPa | – | 1215.9
328.68 K, 60000 kPa | – | 1256.7
328.68 K, 70030 kPa | – | 1294.8
328.68 K, 80090 kPa | – | 1330.4
328.68 K, 90100 kPa | – | 1364
328.68 K, 100060 kPa | – | 1396.1
328.68 K, 110140 kPa | – | 1426.4
328.68 K, 120100 kPa | – | 1454.7
328.68 K, 130000 kPa | – | 1481.9
328.68 K, 140020 kPa | – | 1508.4
328.68 K, 150040 kPa | – | 1533.8
328.68 K, 160100 kPa | – | 1557.9
332.91 K, 5000 kPa | 829.26 | –
332.91 K, 9920 kPa | 836.08 | –
332.91 K, 14840 kPa | 842.42 | –
332.91 K, 19760 kPa | 848.36 | –
332.91 K, 24670 kPa | 853.96 | –
332.91 K, 29590 kPa | 859.28 | –
332.91 K, 34510 kPa | 864.37 | –
332.91 K, 39430 kPa | 869.21 | –
332.91 K, 44340 kPa | 873.86 | –
332.91 K, 49260 kPa | 878.33 | –
332.91 K, 54180 kPa | 882.64 | –
332.91 K, 59100 kPa | 886.8 | –
338.72 K, 100 kPa | – | 888.6
338.72 K, 5050 kPa | – | 927.2
338.72 K, 10020 kPa | – | 962.5
338.72 K, 20030 kPa | – | 1025.1
338.72 K, 30050 kPa | – | 1081.4
338.72 K, 40010 kPa | – | 1132.6
338.72 K, 49990 kPa | – | 1179.8
338.72 K, 60050 kPa | – | 1223.2
338.72 K, 70040 kPa | – | 1262.8
338.72 K, 79970 kPa | – | 1299.3
338.72 K, 90070 kPa | – | 1334.7
338.72 K, 100040 kPa | – | 1367.5
338.72 K, 110020 kPa | – | 1398.5
338.72 K, 119960 kPa | – | 1428.5
338.72 K, 130000 kPa | – | 1456.6
338.72 K, 140080 kPa | – | 1484.3
338.72 K, 150050 kPa | – | 1510.5
338.72 K, 159910 kPa | – | 1535.5
